US20190083482A1, “PRMT5 INHIBITORS AND USES THEREOF” (Epizyme, Inc., priority 2017, published 2019)
pEC50, pIC50: −log10 of the molar value.

What was measured:
[1] = tested on: symmetric di-methyl arginine in Z-138 cells; experiment: Z-138 Methylation Assay (In Cell Western for symmetric di-methyl arginine); format: cell-based; details: Homo sapiens, 96 hours incubation, read-out: ICW EC50
From the text: Z-138 suspension cells were purchased from ATCC (American Type Culture Collection, Manassas, Va.). RPMI/Glutamax medium, penicillin-streptomycin, heat inactivated fetal bovine serum, and D-PBS were purchased from Life Technologies, Grand Island, N.Y., USA. Odyssey blocking buffer, 800 CW goat anti-rabbit IgG (H+L) antibody, and Licor Odyssey infrared scanner were purchased from Licor Biosciences, Lincoln, Nebr., USA. Symmetric di-methyl arginine antibody was purchased from EMD Millipore, Billerica, Mass., USA. 16% Paraformaldehyde was purchased from Electron Microscopy Sciences, Hatfield, Pa., USA.
Z-138 suspension cells were maintained in growth medium (RPMI 1640 supplemented with 10% v/v heat inactivated fetal bovine serum and 100 units/mL penicillin-streptomycin) and cultured at 37° C. under 5% CO2.
Cell Treatment, in Cell Western (ICW) for Detection of Symmetric Di-Methyl Arginine and DNA Content.
Z-138 cells were seeded in assay medium at a concentration of 50,000 cells per mL to a 384-well cell culture plate with 50 μL per well. Compound (100 nL) from 384 well source plates was added directly to 384 well cell plate. Plates were incubated at 37° C., 5% CO2 for 96 hours. After four days of incubation, 40 μL of cells from incubated plates were added to poly-D-lysine coated 384 well culture plates (BD Biosciences 356697). Plates were incubated at room temperature for 30 minutes then incubated at 37° C., 5% CO2 for 5 hours. After the incubation, 40 μL per well of 8% paraformaldehyde in PBS (16% paraformaldahyde was diluted to 8% in PBS) was added to each plate and incubated for 30 minutes. Plates were transferred to a Biotek 405 plate washer and washed 5 times with 100 μL per well of wash buffer (1×PBS with 0.1% Triton X-100 (v/v)). Next 30 μL per well of Odyssey blocking buffer were added to each plate and incubated 1 hour at room temperature. Blocking buffer was removed and 20 μL per well of primary antibody was added (symmetric di-methyl arginine diluted 1:100 in Odyssey buffer with 0.1% Tween 20 (v/v)) and plates were incubated overnight (16 hours) at 4° C. Plates were washed 5 times with 100 μL per well of wash buffer. Next 20 μL per well of secondary antibody was added (1:200 800 CW goat anti-rabbit IgG (H+L) antibody, 1:1000 DRAQ5 (Biostatus limited) in Odyssey buffer with 0.1% Tween 20 (v/v)) and incubated for 1 hour at room temperature. The plates were washed 5 times with 100 μL per well wash buffer then 1 time with 100 μL per well of water. Plates were allowed to dry at room temperature then imaged on the Licor Odyssey machine which measures integrated intensity at 700 nm and 800 nm wavelengths. Both 700 and 800 channels were scanned.
First, the ratio for each well was determined by:
Each plate included fourteen control wells of DMSO only treatment (minimum inhibition) as well as fourteen control wells for maximum inhibition treated with 3 μM of a reference compound (Background wells). The average of the ratio values for each control type was calculated and used to determine the percent inhibition for each test well in the plate. Reference compound was serially diluted three-fold in DMSO for a total of nine test concentrations, beginning at 3 μM. Percent inhibition was determined and IC50 curves were generated using triplicate wells per concentration of compound.

PRMT5/MEP50 = biological target: T1, PRMT5/MEP50 (Homo sapiens, UniProt O14744); experiment: PRMT5 Biochemical Assay (PRMT5/MEP50 enzyme assay on peptide substrate, 3H-SAM Flashplate); details: PRMT5/MEP50 4 nM, 3H-SAM 75 nM, peptide 40 nM
T1 construct: Flag-PRMT5; made in house; host or cells: Spodoptera frugiperda (SF9) insect cells, baculovirus
T1 sequence (O14744 with tags, fused parts or gaps): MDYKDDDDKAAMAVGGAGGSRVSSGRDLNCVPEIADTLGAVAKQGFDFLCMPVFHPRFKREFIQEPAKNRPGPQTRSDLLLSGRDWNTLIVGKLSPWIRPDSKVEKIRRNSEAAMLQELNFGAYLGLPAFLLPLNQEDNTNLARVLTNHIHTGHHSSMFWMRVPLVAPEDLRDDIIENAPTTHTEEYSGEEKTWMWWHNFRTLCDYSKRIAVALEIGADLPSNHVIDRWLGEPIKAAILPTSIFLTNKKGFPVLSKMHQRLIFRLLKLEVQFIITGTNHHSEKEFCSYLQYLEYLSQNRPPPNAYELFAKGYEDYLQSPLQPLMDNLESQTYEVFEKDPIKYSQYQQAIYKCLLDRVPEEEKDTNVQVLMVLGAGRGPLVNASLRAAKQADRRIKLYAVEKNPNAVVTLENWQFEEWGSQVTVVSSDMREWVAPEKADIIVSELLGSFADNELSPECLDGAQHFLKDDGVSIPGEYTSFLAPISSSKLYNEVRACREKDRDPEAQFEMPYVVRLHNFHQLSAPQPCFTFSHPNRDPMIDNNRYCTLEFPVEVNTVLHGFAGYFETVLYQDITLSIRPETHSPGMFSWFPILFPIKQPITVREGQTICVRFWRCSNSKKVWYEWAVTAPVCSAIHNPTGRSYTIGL
T1 sequence (Q9BQA1 with tags, fused parts or gaps partner limits assumed): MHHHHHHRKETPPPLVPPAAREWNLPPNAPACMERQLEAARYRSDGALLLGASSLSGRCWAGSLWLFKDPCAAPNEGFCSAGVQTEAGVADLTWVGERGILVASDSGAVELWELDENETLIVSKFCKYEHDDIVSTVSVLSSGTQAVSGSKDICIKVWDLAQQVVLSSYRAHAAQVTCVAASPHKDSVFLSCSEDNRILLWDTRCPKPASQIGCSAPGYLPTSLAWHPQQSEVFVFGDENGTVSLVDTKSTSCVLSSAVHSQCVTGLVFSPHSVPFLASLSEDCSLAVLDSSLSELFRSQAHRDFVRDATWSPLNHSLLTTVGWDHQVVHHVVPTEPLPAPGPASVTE
From the text: S-adenosylmethionine (SAM), S-adenosylhomocysteine (SAH), bicine, KCl, Tween20, dimethylsulfoxide (DMSO), bovine skin gelatin (BSG), and Tris(2-carboxyethyl)phosphine hydrochloride solution (TCEP) were purchased from Sigma-Aldrich at the highest level of purity possible. ^3H-SAM was purchase from American Radiolabeled Chemicals with a specific activity of 80 C1/mmol. 384-well streptavidin Flashplates were purchased from PerkinElmer.
Peptide representative of human histone H4 residues 1-15 was synthesized with a C-terminal linker-affinity tag motif and a C-terminal amide cap by 21st Century Biochemicals.
The amplified genes were sublconed into pENTR/D/TEV (Life Technologies) and subsequently transferred by Gateway™ attL×attR recombination to pDEST8 baculvirus expression vector (Life Technologies).
Protein over-expression was accomplished by infecting exponentially growing Spodoptera frugiperda (SF9) cell culture at 1.2×10^6 cell/ml with a 5000 fold dilution of BIIC stock. Infections were carried out at 27° C. for 72 hours, harvested by centrifugation, and stored at −80° C. for purification.
Flag-PRMT5/6His-MeP50 was eluted with 300 mM Imidazole in the same buffer.
General Procedure for PRMT5/MEP50 Enzyme Assays on Peptide Substrates.
The assays were all performed in a buffer consisting of 20 mM Bicine (pH=7.6), 1 mM TCEP, 0.005% BSG, and 0.002% Tween20, prepared on the day of use. […] DMSO (1 ul) was added to Columns 11, 12, 23, 24, rows A-H for the maximum signal control and 1 ul of SAH, a known product and inhibitor of PRMT5/MEP50, was added to columns 11, 12, 23, 24, rows I-P for the minimum signal control. A cocktail (40 ul) containing the PRMT5/MEP50 enzyme and the peptide was added by Multidrop Combi (Thermo-Fisher). The compounds were allowed to incubate with PRMT5/MEP50 for 30 min at 25 degrees Celsius, then a cocktail (10 ul) containing ^3H-SAM was added to initiate the reaction (final volume=51 ul). […] The assays were stopped by the addition of non-radioactive SAM (10 ul) to a final concentration of 600 uM, which dilutes the ^3H-SAM to a level where its incorporation into the peptide substrate is no longer detectable. 50 ul of the reaction in the 384-well polypropylene plate was then transferred to a 384-well Flashplate and the biotinylated peptides were allowed to bind to the streptavidin surface for at least 1 hour before being washed three times with 0.1% Tween20 in a Biotek ELx405 plate washer. The plates were then read in a PerkinElmer TopCount plate reader to measure the quantity of ^3H-labeled peptide bound to the Flashplate surface, measured as disintegrations per minute (dpm) or alternatively, referred to as counts per minute (cpm).
Where dpm=disintegrations per minute, cmpd=signal in assay well, and min and max are the respective minimum and maximum signal controls.
Where top and bottom are the normally allowed to float, but may be fixed at 100 or 0 respectively in a 3-parameter fit. The Hill Coefficient normally allowed to float but may also be fixed at 1 in a 3-parameter fit. Y is the % inhibition and X is the compound concentration.

Z-138 cell line = experiment: Z-138 Proliferation Assay (Cell Titer Glo); format: cell-based; details: Homo sapiens, 120 h; Z-138 cells, 5 days incubation, top concentration 20 μM
From the text: Z-138 Proliferation Assay
Z-138 suspension cells were purchased from ATCC (American Type Culture Collection, Manassas, Va.). RPMI/Glutamax medium, penicillin-streptomycin, heat inactivated fetal bovine serum were purchased from Life Technologies, Grand Island, N.Y., USA. V-bottom polypropylene 384-well plates were purchased from Greiner Bio-One, Monroe, N.C., USA. Cell culture 384-well white opaque plates were purchased from Perkin Elmer, Waltham, Mass., USA. Cell-Titer Glo® was purchased from Promega Corporation, Madison, Wis., USA. SpectraMax M5 plate reader was purchased from Molecular Devices LLC, Sunnyvale, Calif., USA.
Z-138 suspension cells were maintained in growth medium (RPMI 1640 supplemented with 10% v/v heat inactivated fetal bovine serum and cultured at 37° C. under 5% CO2. Under assay conditions, cells were incubated in assay medium (RPMI 1640 supplemented with 10% v/v heat inactivated fetal bovine serum and 100 units/mL penicillin-streptomycin) at 37° C. under 5% CO2.
For the assessment of the effect of compounds on the proliferation of the Z-138 cell line, exponentially growing cells were plated in 384-well white opaque plates at a density of 10,000 cells/ml in a final volume of 50 μl of assay medium. A compound source plate was prepared by performing triplicate nine-point 3-fold serial dilutions in DMSO, beginning at 10 mM (final top concentration of compound in the assay was 20 μM and the DMSO was 0.2%). A 100 nL aliquot from the compound stock plate was added to its respective well in the cell plate. […] After addition of compounds, assay plates were incubated for 5 days at 37° C., 5% CO2, relative humidity >90%. Cell viability was measured by quantitation of ATP present in the cell cultures, adding 35 μl of Cell Titer Glo® reagent to the cell plates. Luminescence was read in the SpectraMax M5 microplate reader. The concentration of compound inhibiting cell viability by 50% was determined using a 4-parametric fit of the normalized dose response curves.

Compound O=C(COc1cccc2cncnc12)NCC(O)CN1CCc2ccccc2C1 (stereo not shown) [Compound 181] has a pEC50 [1] greater than 7.00 and a pIC50 (PRMT5/MEP50) greater than 7.00.

Work on CN(C)c1cccc(OCC(=O)NCC(O)CN2CCc3ccccc3C2)c1S(N)(=O)=O (stereo not shown) [Compound 169] yielded a pEC50 [1] greater than 7.00, a pEC50 (Z-138 cell line) of 5.00 to 6.00 and a pIC50 (PRMT5/MEP50) greater than 7.00.

In the case of CC(=O)Nc1ccncc1OCC(=O)NCC(O)CN1CCc2ccccc2C1 (stereo not shown) [Compound 162], the pEC50 [1] was 5.00 to 6.00 and the pEC50 (Z-138 cell line) was less than 4.70.

Compound CN(c1ccccc1OCC(=O)NCC(O)CN1CCc2ccccc2C1)S(C)(=O)=O (stereo not shown) [Compound 155] has a pEC50 [1] greater than 7.00, a pEC50 (Z-138 cell line) of 5.00 to 6.00 and a pIC50 (PRMT5/MEP50) greater than 7.00.

Compound O=C(Cc1ccc2c(c1)OCO2)NC[C@H](O)CN1CCc2ccccc2C1 [Compound 174] has a pEC50 [1] of 6.00 to 7.00 and a pEC50 (Z-138 cell line) of less than 4.70.

For Cn1ncc2ccc(OCC(=O)NC[C@@H](O)CN3CCc4ccccc4C3)cc21 [Compound 160], the pEC50 [1] was 5.00 to 6.00 and the pEC50 (Z-138 cell line) was less than 4.70.

For O=C(NC[C@H](O)CN1CCc2ccccc2C1)C1CNc2ccccc21 (stereo partly shown) [Compound 177], the pEC50 [1] was 6.00 to 7.00 and the pEC50 (Z-138 cell line) was 4.30 to 5.00.

For Cc1nn(C)c2cccc(OCC(=O)NCC(O)CN3CCc4ccccc4C3)c12 (stereo not shown) [Compound 158], the pEC50 [1] was 6.00 to 7.00, the pEC50 (Z-138 cell line) was 5.00 to 6.00 and the pIC50 (PRMT5/MEP50) was greater than 7.00.

For O=C(COc1cncc(CN2CCOCC2)c1)NCC(O)CN1CCc2ccccc2C1 (stereo not shown) [Compound 172], the pEC50 [1] was 6.00 to 7.00 and the pEC50 (Z-138 cell line) was 4.30 to 5.00.

For Cc1cn(C)c2cccc(OCC(=O)NC[C@@H](O)CN3CCc4ccccc4C3)c12 [Compound 164], the pEC50 [1] was greater than 7.00, the pEC50 (Z-138 cell line) was 6.00 to 7.00 and the pIC50 (PRMT5/MEP50) was greater than 7.00.

CN(C)CCN(C)S(=O)(=O)c1ccccc1OCC(=O)NC[C@@H](O)CN1CCc2ccccc2C1 [Compound 191] showed a pIC50 (PRMT5/MEP50) greater than 7.00.

Work on Cn1ncc2ccc(OCC(=O)NC[C@H](O)CN3CCc4ccccc4C3)cc21 [Compound 159] yielded a pEC50 [1] greater than 7.00, a pEC50 (Z-138 cell line) of 5.00 to 6.00 and a pIC50 (PRMT5/MEP50) greater than 7.00.

In the case of Nc1ncnc2c(OCC(=O)NCC(O)CN3CCc4ccccc4C3)cccc12 (stereo not shown) [Compound 168], the pEC50 [1] was greater than 7.00, the pEC50 (Z-138 cell line) was 5.00 to 6.00 and the pIC50 (PRMT5/MEP50) was greater than 7.00.

Compound O=C(Cc1c[nH]c2ccccc12)NC[C@H](O)CN1CCc2ccccc2C1 [Compound 182] has a pEC50 [1] of 6.00 to 7.00.

Work on Cc1cn(C)c2cccc(OCC(=O)NC[C@H](O)CN3CCc4ccccc4C3)c12 [Compound 163] yielded a pEC50 [1] of 6.00 to 7.00, a pEC50 (Z-138 cell line) of 5.00 to 6.00 and a pIC50 (PRMT5/MEP50) greater than 7.00.

O=C(CCc1nc2ccccc2[nH]1)NC[C@H](O)CN1CCc2ccccc2C1 [Compound 175, (S)-3-(1H-benzo[d]imidazol-2-yl)-N-(3-(3,4-dihydroisoquinolin-2(1H)-yl)-2-hydroxypropyl)propanamide] showed a pEC50 [1] greater than 7.00, a pEC50 (Z-138 cell line) of 6.00 to 7.00 and a pIC50 (PRMT5/MEP50) greater than 7.00.

O=C(CC1CCc2ccccc21)NC[C@H](O)CN1CCc2ccccc2C1 (stereo partly shown) [Compound 178] was tested, and the pEC50 [1] was 6.00 to 7.00 and the pEC50 (Z-138 cell line) was 5.00 to 6.00.

Work on CN1CCN(c2cccc(OCC(=O)NC[C@@H](O)CN3CCc4ccccc4C3)c2)CC1 [Compound 190] yielded a pIC50 (PRMT5/MEP50) greater than 7.00.

Compound O=C(COc1cncc(C(=O)N2CCOCC2)c1)NCC(O)CN1CCc2ccccc2C1 (stereo not shown) [Compound 161] has a pEC50 [1] of 5.00 to 6.00 and a pEC50 (Z-138 cell line) of less than 4.70.

O=C(NCC(O)CN1CCc2ccccc2C1)C(O)c1ccccc1 (stereo not shown) [Compound 165] gave a pEC50 [1] of 6.00 to 7.00 and a pEC50 (Z-138 cell line) of less than 4.70.

For O=C(CC1Cc2ccccc2C1)NC[C@H](O)CN1CCc2ccccc2C1 [Compound 179], the pEC50 [1] was 6.00 to 7.00 and the pEC50 (Z-138 cell line) was 4.30 to 5.00.

Compound CC(NC(=O)COc1ccccc1S(N)(=O)=O)C(O)CN1CCc2ccccc2C1 (stereo not shown) [Compound 170] has a pEC50 [1] of 6.00 to 7.00, a pEC50 (Z-138 cell line) of 4.30 to 5.00 and a pIC50 (PRMT5/MEP50) greater than 7.00.

In the case of Cn1ncc2ccc(OCC(=O)NCC(O)CN3CCc4ccccc4C3)cc21 (stereo not shown) [Compound 23, N-(3-(3,4-dihydroisoquinolin-2(1H)-yl)-2-hydroxypropyl)-2-((1-methyl-1H-indazol-6-yl)oxy)acetamide], the pEC50 (Z-138 cell line) was 5.00 to 6.00.

O=C(NC[C@H](O)CN1CCc2ccccc2C1)C1COc2ccccc2O1 (stereo partly shown) [Compound 183] was tested, and the pEC50 [1] was 6.00 to 7.00.

Cn1cnc(-c2ccccc2OCC(=O)NCC(O)CN2CCc3ccccc3C2)c1 (stereo not shown) [Compound 153] was tested, and the pEC50 [1] was 6.00 to 7.00, the pEC50 (Z-138 cell line) was 4.30 to 5.00 and the pIC50 (PRMT5/MEP50) was greater than 7.00.
